Results on four molecules are retold here after paper PMC6017046, “Synergistic Promotion on Tyrosinase Inhibition by Antioxidants” (Molecules : A Journal of Synthetic Chemistry and Natural …, 2018).

Each structure is given as a SMILES string.

Assay [1] addresses T1, Mushroom tyrosinase (Agaricus bisporus, UniProt C7FF04). Conditions: ref 1 (GLA), ref 25 (OXYR), ref 26 (RES); cited from earlier work.
Assay [2] deals with T1, Mushroom tyrosinase. Briefly: Mushroom tyrosinase inhibitory assay, L-tyrosine as substrate. In kind it is biochemical. The method, then:
Inhibitory activity against tyrosinase is examined through an improved spectrophotometric method using L-DOPA and L-tyrosine as substrates. […] The reaction mixture is incubated at 37 °C for 15 min. Mushroom tyrosinase (40 µL, 200 units/mL) is added to the reaction mixture and incubated at 30 °C for 20 min.
(§1) Dopachrome formation is monitored at 475 nm with a UV-visible spectrophotometer (MAPADA UV-6100PCS). The rate of the inhibition of tyrosinase activity (I%) is determined according to the following formula: I%=(A2−A1)−(B2−B1)/(A2−A1)×100 where A1 and A2 are the absorbance values of the blank at 475 nm at 0 min and 20 min, respectively, and B1 and B2 is the absorbance levels of the test sample at 475 nm at 0 min and 20 min, respectively.
The 50% inhibition concentration (IC50) value is determined with SPSS 17.0 statistical software (International Business Machines Corporatio, Armonk, NY, USA). All experiments are performed at least in triplicate. Data are analyzed by unpaired Student’s t-test, followed by Dunnett’s multiple comparison test (SPSS version 17.0). P values lower than 0.05 are considered significant. The interactions are calculated using combination index (CI) according to [22]: CI=IC50amix/IC50a+IC50bmix/IC50b where IC50a and IC50b are obtained from pure compounds, and IC50amix is the concentration of individual compound in the mixture that cause 50% inhibition. Obtained CI values equal, smaller, or greater than 1 indicate an additive, synergistic, or antagonistic effect, respectively.

Assay [3] can be described thus: DPPH free radical-scavenging capacity assay. To be noted: 0.1 mmol/L DPPH, 30 min, absorbance 517 nm; read-out: IC50 of antioxidant solutions (DPPH scavenging / DPPH clearance rate). The method, then: The DPPH free radical-scavenging capacity of the samples are determined according to the method of a previous study with slight modifications. Samples (100l) of various concentrations are added to 100 µL of 0.1 mmol/L DPPH solution in methanol at room temperature. After 30 min, the absorbance is measured at 517 nm with a UV-visible spectrophotometer (MAPADA UV-6100PCS, Shanghai, China). The percentage of free radical (DPPH) scavenging activity (I%) is calculated according to following formula: I%=ODck−ODsample/ODck×100 where ODck is the absorbance of the control reaction, which involves all the reagents except the test compound, and ODsample is the absorbance of the test compound.
On the technique in general: DPPH is a stable violet radical that fades when it is reduced.

For assay [4], the target named is T2, tyrosinase activity of PIG1 cells (Homo sapiens, UniProt P14679).
T2 construct: The intracellular tyrosinase activity of the PIG1 cells; host or cells: PIG1 immortalized human epidermal melanocytes
T2 sequence (P14679 19-529): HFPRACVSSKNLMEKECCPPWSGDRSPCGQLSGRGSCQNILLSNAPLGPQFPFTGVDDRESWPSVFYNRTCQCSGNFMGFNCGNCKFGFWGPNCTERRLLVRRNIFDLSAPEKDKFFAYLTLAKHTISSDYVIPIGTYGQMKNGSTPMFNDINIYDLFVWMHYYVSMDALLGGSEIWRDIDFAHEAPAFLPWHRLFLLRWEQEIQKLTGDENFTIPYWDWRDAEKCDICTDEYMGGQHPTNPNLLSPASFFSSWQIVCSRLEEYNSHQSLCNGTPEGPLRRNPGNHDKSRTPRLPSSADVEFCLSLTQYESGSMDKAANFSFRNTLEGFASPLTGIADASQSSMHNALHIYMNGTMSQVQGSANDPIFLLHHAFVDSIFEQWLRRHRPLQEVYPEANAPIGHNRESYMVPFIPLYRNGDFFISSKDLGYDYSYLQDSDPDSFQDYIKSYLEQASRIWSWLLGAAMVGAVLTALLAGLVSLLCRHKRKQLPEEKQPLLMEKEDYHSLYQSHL
Briefly: Intracellular tyrosinase activity assay in UVB-irradiated PIG1 cells (L-DOPA oxidation). It is filed as cell-based. To be noted: 300 mJ/cm^2 UVB, 24 h, L-DOPA substrate, read-out: IC50, inhibition against tyrosinase activities.
Experimental: Immortalized human epidermal melanocyte cells from cell line PIG1 are obtained from Shanghai Guandao Bio-engineering Ltd. Co. (Shanghai, China). PIG1 cells are cultured at 37 °C with 5% CO2 in Medium 254 (#M-254-500, Thermo Fisher Scientific, New York, NY, USA) supplemented with human melanocyte growth supplement-2 (Thermo Fisher Scientific, New York, NY, USA) and 5% (v/v) fetal bovine serum (Thermo Fisher Scientific, New York, NY, USA).
The UVB source employed in this study is a Sigma SH4B light therapy device (Shanghai SIGMA High-tech Co., Ltd., Shanghai, China). […] UVB irradiation treatment is conducted when cells reached approximately 70% confluence according to the methods of Zeng et al. [19]. Before UVB irradiation, the supernatant is removed and replaced with PBS. […] The control group receives the same treatment as the UVB group but is not administered any drug.
PIG1 cells (1 × 10^4 cells/well) are seeded in 96-well plates and incubated for 24 h in CO2 until 70–80% confluence is reached. Subsequently, the complete medium is replaced with 100 µL of PBS, and the cells are exposed to 300 mJ/cm^2 UVB irradiation. […] The intracellular tyrosinase activity of the PIG1 cells are estimated by measuring the L-DOPA oxidation capacity according to the method of Rong et al. [21]. […] The products of the reaction are measured by reading the absorbance at 475 nm.

The target of assay [5] is T1, Mushroom tyrosinase. Briefly: Mushroom tyrosinase inhibitory assay, L-DOPA as substrate. Conditions: read-out: IC50, tyrosinase activity, single compounds. It is filed as biochemical. The procedure: The reaction mixture is incubated at 37 °C for 15 min. Subsequently, 40 µL of 100 units/mL mushroom tyrosinase is added to the reaction mixtures and incubated at 37 °C for 20 min. […] The reaction mixture is incubated at 37 °C for 15 min. Subsequently, 40 µL of 5 mM L-DOPA is added to the reaction mixture and incubated at 30 °C for 20 min.
as §1
The 50% inhibition concentration (IC50) value is determined with SPSS 17.0 statistical software (International Business Machines Corporatio, Armonk, NY, USA). All experiments are performed at least in triplicate. Data are analyzed by unpaired Student’s t-test, followed by Dunnett’s multiple comparison test (SPSS version 17.0). P values lower than 0.05 are considered significant. […]

T1 sequence (C7FF04 1-392): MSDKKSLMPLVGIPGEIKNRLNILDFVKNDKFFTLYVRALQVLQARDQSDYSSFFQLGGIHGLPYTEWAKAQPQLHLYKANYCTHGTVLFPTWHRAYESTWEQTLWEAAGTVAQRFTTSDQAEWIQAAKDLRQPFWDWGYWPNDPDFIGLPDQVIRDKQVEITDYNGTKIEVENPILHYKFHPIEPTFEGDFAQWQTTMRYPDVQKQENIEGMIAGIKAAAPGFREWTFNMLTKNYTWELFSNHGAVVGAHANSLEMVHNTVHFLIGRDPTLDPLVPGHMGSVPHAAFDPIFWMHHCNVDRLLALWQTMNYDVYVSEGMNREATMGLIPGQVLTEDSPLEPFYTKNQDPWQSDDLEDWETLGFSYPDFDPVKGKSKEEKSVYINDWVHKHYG

For the molecule `Oc1cc(O)cc(/C=C/c2ccc(O)cc2O)c1` [OXYR, Oxyresveratrol], the “mode of tyrosinase inhibition” value at Mushroom tyrosinase [1] is “non-competitive”. Also, the figures for the IC50 (on Mushroom tyrosinase [2]; in assay [3]) were 2.5 ± 0.06 µM and 76 ± 0.07 µM, respectively.

With `Oc1ccc(/C=C/c2cc(O)cc(O)c2)cc1` [RES, Resveratrol], the IC50 in assay [4] is over 100 µM; at Mushroom tyrosinase [2], 23 ± 0.05 µM; in assay [3], 142 ± 0.03 µM. In addition, the “mode of tyrosinase inhibition” value at Mushroom tyrosinase [1] is listed as “Kcat or suicide inhibitor”.

For `CC1(C)C=Cc2c(ccc3c2OC[C@@H](c2ccc(O)cc2O)C3)O1` [GLA, Glabridin], the “mode of tyrosinase inhibition” value at Mushroom tyrosinase [1] is given as “non-competitive”. Moreover, the IC50 on Mushroom tyrosinase [2] is 1.5 ± 0.03 µM; in assay [3], 458 ± 0.037 µM.

On to `CC(c1ccccc1)c1ccc(O)cc1O` (centres unmarked) [PR, Phenylethylresorcinol], for which the IC50 worked out at 35.5 ± 0.06 µM on Mushroom tyrosinase [5]; 0.28 ± 0.03 µM at Mushroom tyrosinase [2] (L-Tyrosine as substrate, read-out: IC50, tyrosinase activity, single compounds); 119 ± 0.07 µM in assay [3]. Besides, on Mushroom tyrosinase [1], the “mode of tyrosinase inhibition” value is listed as “non-competitive”.
